Test systems include A498; UO-31; RPMI-8226; SF-539; Hs-578T; HOP-92; MDA-MB-231; NCI-H460; RXF 393; K562; EKVX; HCT-15; NCI-H23; M14; PC-3; T47D; OVCAR-3; CAKI-1; SK-MEL-2; BT-549.
Common to all, as to assay: DTP human tumour cell line panel, 48 h

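Briefly, cells in 96-well plates were exposed to five compound concentrations for 48 h, and endpoints were estimated by linear interpolation. GI50 marks 50% less growth.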 Active and inactive are the calls of the source. Rule as the data show it: active = GI50 up to about 1.1 µM and inactive = higher.

Consider `CC(=O)NC(NCCN)(c1ccccc1)c1ccccc1`, for which the GI50 in the assay with A498 is 59.4 µM (inactive); with UO-31, 48 µM (inactive); with RPMI-8226, > 100 µM (inactive); in the assay with SF-539 it was > 100 µM (inactive); in the assay on Hs-578T, > 100 µM (inactive); with HOP-92 it was 16.9 µM (inactive). The GI50 is > 100 µM (inactive) with MDA-MB-231; > 100 µM (inactive) in the assay on NCI-H460; > 100 µM (inactive) in the assay with RXF 393; > 100 µM (inactive) in the assay on K562; > 100 µM (inactive) with EKVX; more than 100 µM in the assay on HCT-15. The GI50 with NCI-H23 and in the assay on M14 was > 100 µM (inactive) in each case.

On to `CCCCc1ccc(-n2c(C)c(COC(=O)NC)c(COC(=O)NC)c2C)cc1`, for which the GI50 with A498 is 1.1 µM (active); with PC-3, 10.9 µM (inactive); in the assay on UO-31 it was 2.7 µM (inactive); in the assay on T47D, 5.66 µM (inactive); in the assay with RPMI-8226 it was 4.47 µM (inactive); in the assay with SF-539, 4.37 µM (inactive). The GI50 in the assay with Hs-578T was 16.6 µM (inactive); in the assay on HOP-92, 2.74 µM (inactive); in the assay on MDA-MB-231, 4.9 µM (inactive); in the assay on NCI-H460 it was 3.81 µM (inactive); with RXF 393 it was 2.84 µM (inactive); with OVCAR-3, 12.1 µM (inactive). Moreover, the GI50 was 6.03 µM (inactive) with K562; 13 µM (inactive) in the assay with EKVX; 6.18 µM in the assay on HCT-15; 2.86 µM (inactive) in the assay on CAKI-1; 7.28 µM (inactive) in the assay with NCI-H23; 6.12 µM (inactive) with M14.

On to `CN1C(=O)N(c2ccccc2)C2(CCN(CC3COc4ccccc4O3)CC2)C1=O` (stereo not given), for which the GI50 in the assay on A498 was > 100 µM (inactive); in the assay on PC-3, > 100 µM (inactive); in the assay on UO-31, > 100 µM (inactive); in the assay on T47D, > 100 µM (inactive); with RPMI-8226, 99.1 µM (inactive); in the assay on SF-539, > 100 µM (inactive). The GI50 with Hs-578T is > 100 µM (inactive); in the assay with HOP-92 it was 66.5 µM (inactive); in the assay with MDA-MB-231, > 100 µM (inactive); in the assay with NCI-H460 it was 96.2 µM (inactive); in the assay with SK-MEL-2 it was > 100 µM (inactive); in the assay on RXF 393 it was > 100 µM (inactive). The GI50 with OVCAR-3 is 19.8 µM (inactive); in the assay on K562, 99.3 µM (inactive); with EKVX it was > 100 µM (inactive); in the assay on HCT-15, more than 100 µM; with CAKI-1, 32.4 µM (inactive); in the assay with NCI-H23, 94.4 µM (inactive). The GI50 in the assay on M14 was > 100 µM (inactive).

Consider `CCOC(=O)C(=CNc1ccc(F)c(F)c1)C(=O)OCC`, for which the GI50 in the assay on A498 was > 100 µM (inactive); in the assay with PC-3 it was 67.6 µM (inactive); in the assay on UO-31 it was 55.3 µM (inactive); with T47D, 69.7 µM (inactive); in the assay with RPMI-8226, 64.1 µM (inactive); in the assay with SF-539, > 100 µM (inactive). Besides, the GI50 in the assay on Hs-578T, in the assay with HOP-92, in the assay with MDA-MB-231, in the assay with NCI-H460, in the assay on SK-MEL-2 and in the assay with RXF 393 was > 100 µM (inactive) throughout. Also, the GI50 in the assay on OVCAR-3 is > 100 µM (inactive); with K562 it was 39.4 µM (inactive); with EKVX, 81.5 µM (inactive); in the assay with HCT-15 it was 88.3 µM; in the assay with CAKI-1, > 100 µM (inactive); in the assay with NCI-H23, > 100 µM (inactive). In addition, the GI50 with M14 was > 100 µM (inactive).

For the compound `Cc1n[nH]c(=O)n1/N=C/c1ccc([N+](=O)[O-])o1`, the GI50 in the assay on A498 is 22.1 µM (inactive); with PC-3, 29 µM (inactive); in the assay on UO-31, 14.5 µM (inactive); in the assay with T47D, 19.5 µM (inactive); with RPMI-8226 it was 15.7 µM (inactive); with SF-539, 19.1 µM (inactive). The GI50 in the assay with MDA-MB-231 was 18.2 µM (inactive); in the assay with NCI-H460 it was 14.3 µM (inactive); in the assay with SK-MEL-2 it was 14.2 µM (inactive); in the assay with RXF 393, 0.881 µM (active); with OVCAR-3 it was 5.58 µM (inactive); in the assay on K562, 8.02 µM (inactive). Besides, the GI50 was 17.5 µM (inactive) with EKVX; 7.01 µM with HCT-15; 7.8 µM (inactive) in the assay on CAKI-1; 21.8 µM (inactive) with BT-549; 13.8 µM (inactive) with NCI-H23; 11.6 µM (inactive) in the assay with M14.

Consider `CCOP(=O)(OCC)/C(=C\N1C(=O)CC(=O)NC1=S)C(=O)OC`, for which the GI50 in the assay with A498, with UO-31, with T47D, in the assay on SF-539, in the assay with HOP-92 and with MDA-MB-231 was > 100 µM (inactive) each time. Further, the GI50 was > 100 µM (inactive) with NCI-H460; > 100 µM (inactive) in the assay on SK-MEL-2; > 100 µM (inactive) in the assay with RXF 393; > 100 µM (inactive) in the assay on OVCAR-3; > 100 µM (inactive) in the assay on EKVX; more than 100 µM in the assay on HCT-15. Further, the GI50 with CAKI-1, with BT-549, in the assay with NCI-H23 and with M14 was > 100 µM (inactive) in each case.

On to `CCCCCCCCCC[S+]([O-])CC(CO)NC(=O)/C=C/c1c(C)nc(O)nc1O` (stereo not given), for which the 50% growth inhibitory concentration (GI50) with A498 was 1.09 µM (active); with PC-3, 1.43 µM (inactive); with UO-31 it was 1.28 µM (inactive); in the assay on T47D, 20.8 µM (inactive); in the assay with RPMI-8226, 1.04 µM (active); with SF-539, 0.484 µM (active). Moreover, the GI50 with HOP-92 is 0.189 µM (active); with MDA-MB-231, 2.97 µM (inactive); with SK-MEL-2, 0.721 µM (active); with RXF 393 it was 0.474 µM (active); in the assay on K562, 0.501 µM (active); with EKVX, 0.774 µM (active). Besides, the GI50 is 1.28 µM in the assay on HCT-15, 10.5 µM (inactive) in the assay on BT-549, 0.504 µM (active) with NCI-H23 and 11 µM (inactive) in the assay with M14.

As for `CC(=O)O[C@H]1CC[C@@]2(C)C(=CC[C@@H]3[C@@H]2CC[C@]2(C)NC(=O)/C(=C\c4ccccc4)C[C@@H]32)C1`, the GI50 with A498 is 13.8 µM (inactive); in the assay with PC-3, 18.4 µM (inactive); in the assay with UO-31, 15.7 µM (inactive); in the assay with T47D, 13.5 µM (inactive); with RPMI-8226 it was 12.3 µM (inactive); in the assay with SF-539, 16.1 µM (inactive). Besides, the GI50 is 22.6 µM (inactive) in the assay on MDA-MB-231; 26.9 µM (inactive) in the assay on NCI-H460; 20.4 µM (inactive) in the assay with SK-MEL-2; 13 µM (inactive) in the assay with RXF 393; 12.9 µM (inactive) with OVCAR-3; > 100 µM (inactive) in the assay with K562. The GI50 in the assay with EKVX was 14.9 µM (inactive); in the assay on HCT-15, 18.6 µM; in the assay on CAKI-1, 25.9 µM (inactive); in the assay with BT-549 it was 18.6 µM (inactive); in the assay with NCI-H23 it was 15.9 µM (inactive); in the assay on M14 it was 16.1 µM (inactive).

For the compound `COc1ccc(NC(=O)c2cc(NC(=O)/C=C/c3ccccc3)c(OC)c(OC)c2)cc1`, the GI50 is 53.6 µM (inactive) with A498; 6.41 µM (inactive) in the assay with PC-3; 1.98 µM (inactive) in the assay on UO-31; 8.91 µM (inactive) with T47D; 3.83 µM (inactive) in the assay with RPMI-8226; 5.38 µM (inactive) in the assay on SF-539. In addition, the GI50 in the assay on Hs-578T is 43.5 µM (inactive); with HOP-92, 16.8 µM (inactive); with MDA-MB-231, 9.55 µM (inactive); with NCI-H460, 11.7 µM (inactive); in the assay on SK-MEL-2 it was 2.58 µM (inactive); in the assay on RXF 393, 11.2 µM (inactive). The GI50 in the assay with OVCAR-3 was 60.1 µM (inactive); in the assay with K562, 13.4 µM (inactive); with EKVX, 54.2 µM (inactive); in the assay on HCT-15, 3.99 µM; with CAKI-1, 8.73 µM (inactive); in the assay on NCI-H23, > 100 µM (inactive). Moreover, in the assay with M14, the GI50 is > 100 µM (inactive).

For the compound `Cc1ccc(S(=O)(=O)N2CC3OC(C)(C)OC3C2CO)cc1` (stereo not given), the GI50 in the assay on A498, in the assay with PC-3, with T47D, in the assay with RPMI-8226, in the assay with SF-539 and with Hs-578T was > 100 µM (inactive) throughout. For the same compound, the GI50 in the assay with HOP-92, with MDA-MB-231, in the assay on NCI-H460, in the assay with SK-MEL-2, in the assay on RXF 393 and in the assay on OVCAR-3 was > 100 µM (inactive) in each case. Also, the GI50 in the assay on K562 was > 100 µM (inactive); in the assay on HCT-15 it was more than 100 µM; in the assay on CAKI-1, > 100 µM (inactive); in the assay on M14, > 100 µM (inactive).

In the case of `Cc1cccc2c1Oc1cc(Cl)ccc1C2NC(=O)CCN1CCCCC1` (stereo not given), the GI50 in the assay on PC-3 is 14.6 µM (inactive); in the assay with UO-31, 15.4 µM (inactive); in the assay with T47D it was 13.1 µM (inactive); in the assay with RPMI-8226 it was 25 µM (inactive); with SF-539, 16.7 µM (inactive); in the assay on HOP-92, 2.02 µM (inactive). In addition, the GI50 in the assay on MDA-MB-231 was 20.6 µM (inactive); in the assay on NCI-H460, 16.5 µM (inactive); in the assay on OVCAR-3, > 10 µM (inactive); in the assay with K562, 15.1 µM (inactive); in the assay on EKVX, 20.7 µM (inactive); in the assay on HCT-15 it was 17.7 µM. Besides, the GI50 was 18.7 µM (inactive) in the assay on BT-549, 19.1 µM (inactive) with NCI-H23 and 17.7 µM (inactive) in the assay on M14.

Regarding `N#CC(C(=O)c1cccnc1Cl)c1nc2cc(C(F)(F)F)ccc2s1` (stereo not given), the GI50 in the assay with A498 is 26.7 µM (inactive); in the assay on UO-31 it was 39.8 µM (inactive); with T47D it was > 100 µM (inactive); in the assay with RPMI-8226, 41.6 µM (inactive); in the assay with SF-539, 99.3 µM (inactive); with HOP-92, 12.4 µM (inactive). The GI50 in the assay on MDA-MB-231 was 54 µM (inactive); in the assay with NCI-H460 it was 59.6 µM (inactive); in the assay with RXF 393, 42.3 µM (inactive); in the assay with OVCAR-3, > 100 µM (inactive); in the assay on K562, 60.5 µM (inactive); in the assay on EKVX, 64.9 µM (inactive). Further, the 50% growth inhibitory concentration (GI50) was 35.3 µM in the assay with HCT-15; > 100 µM (inactive) with CAKI-1; 37.4 µM (inactive) in the assay with BT-549; 30.8 µM (inactive) in the assay with NCI-H23; 50.8 µM (inactive) in the assay with M14.
